This note sets out measurements from ChEMBL document CHEMBL2311324, “Inhibitors of HIV-1 attachment. Part 10. The discovery and structure-activity relationships of 4-azaindole cores” (Bioorg Med Chem Lett, 2013).

Series [1] concerns Rattus norvegicus. As to the kind of experiment: (§1) AUC in rat at 5 mg/kg, po. It counts as ADME, organism-based, Plasma. Also noted: dose 5 mg/kg, route oral. Conditions: in vivo.
Series [2] is described as follows: Cytotoxicity against human HeLa cells expressing CD4, CCR5 after 3 days. It counts as cell-based. Conditions: HeLa cells expressing CD4 and CCR5.
Series [3] has as its system Rattus norvegicus. As to the kind of experiment: Oral bioavailability in rat at 5 mg/kg. It counts as ADME, organism-based. Conditions: in vivo.
In series [4] the test system is Human immunodeficiency virus 1. As to the kind of experiment: Antiviral activity against HIV1 JR-FL in human HeLa cells expressing CD4, CCR5 assessed as inhibition of integration of viral DNA into cell genome after 3 days by luciferase reporter gene assay. The conditions noted are these: Human immunodeficiency virus 1, JR-FL, 72 h. It counts as functional, organism-based. For orientation: A reporter such as luciferase makes a cellular process visible.

Series [5] is described as follows: as §1. Conditions: plasma. Also noted: dose 5 mg/kg, route oral. It counts as ADME, organism-based, Plasma.

For orientation: AUC means concentration integrated over time. Lower therefore signals less exposure. Broadly, the CC50 is the concentration that lowers cell viability or growth by half. A low value points to harm at low concentration. For orientation: EC50 means the concentration giving half of the maximal effect. Take `C[C@@H]1CN(C(=O)C(=O)c2c[nH]c3c(-c4ncco4)ccnc23)CCN1C(=O)c1ccccc1`: the exposure (AUC) in series [1] turned out to be 5.6 µM·h. In series [2], this compound showed a half-maximal cytotoxic concentration (CC50) at 72 h of 135 µM. Moreover, the F in series [3] was found to be 60%. Also, in series [4], the EC50 worked out at 0.34 nM.

In the case of `C[C@@H]1CN(C(=O)C(=O)c2c[nH]c3c(-c4nccs4)ccnc23)CCN1C(=O)c1ccccc1`, the AUC in series [1] is 1.3 µM·h. Further, in series [2], the half-maximal cytotoxic concentration (CC50) at 72 h amounted to 35 µM. The compound further had a F in series [3] of 41%. Moreover, the EC50 in series [4] was determined as 0.31 nM.

In series [1], `O=C(C(=O)N1CCN(C(=O)c2ccccc2)CC1)c1c[nH]c2c(-n3nccn3)ccnc12` yielded an exposure (AUC) of 9.6 µM·h. Besides, the CC50 at 72 h in series [2] is > 300 µM. The F in series [3] was found to be 65%. Further, in series [4], the EC50 was 0.32 nM.

In series [5], `COc1ccnc2[nH]cc(C(=O)C(=O)N3CCN(C(=O)c4ccccc4)C[C@H]3C)c12` registered an area under the curve (AUC) of 1.3 µM·h. The CC50 at 72 h in series [2] was > 300 µM. Also, the EC50 in series [4] came out at 1 nM.
